Values quoted from earlier work as cited in publication PMC2898477, “High-quality crystals of human haematopoietic prostaglandin D synthase with novel inhibitors” (2010).

Target: T1, haematopoietic prostaglandin D synthase (H-PGDS) (Homo sapiens, UniProt O60760)
T1 construct: gene HPGDS
Test: co-crystallization and X-ray diffraction of the complex ([…] Å, P1); IC50 cited from Aritake et al. […]
Type: biochemical

T1 sequence (O60760 whole entry): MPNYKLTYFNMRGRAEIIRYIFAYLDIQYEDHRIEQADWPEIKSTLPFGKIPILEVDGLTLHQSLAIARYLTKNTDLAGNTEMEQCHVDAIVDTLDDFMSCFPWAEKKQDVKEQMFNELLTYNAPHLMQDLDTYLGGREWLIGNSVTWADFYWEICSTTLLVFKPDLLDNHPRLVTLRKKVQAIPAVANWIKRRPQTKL

c1ccc(C(OC2CCN(CCCc3nnn[nH]3)CC2)c2ccccc2)cc1 [HQL-79, 4-benzhydryloxy-1-[3-(1H-tetrazol-5-yl)-propyl]-piperidine]
IC50: 5.9 µM
